Article PMC5910229 (Neuron, 2018)

Key:
[1] = molecular target: T1, RIM1 C2B (RIM1α C2B domain) (Rattus norvegicus, UniProt Q9JIR4); assay: 1H-15N HSQC NMR titration; format: binding
T1 sequence (Q9JIR4 1447-1615): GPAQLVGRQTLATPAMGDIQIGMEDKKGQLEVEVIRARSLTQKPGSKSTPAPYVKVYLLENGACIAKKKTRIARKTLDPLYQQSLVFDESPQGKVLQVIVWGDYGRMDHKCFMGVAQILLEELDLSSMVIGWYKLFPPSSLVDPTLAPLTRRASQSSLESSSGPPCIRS

AUC = molecular target: the molecule itself; assay: AUC

## CCCC(=O)OC[C@H](COP(=O)(O)O[C@@H]1[C@H](O)[C@H](O)[C@@H](OP(=O)(O)O)[C@H](OP(=O)(O)O)[C@H]1O)OC(=O)CCC [diC4-PIP2]
[1]
  Kd: 32 to 79 µM

B1: RIM1α C2B domain (GST tag cleaved) (domain or fragment, rat)
chain: GPAQLVGRQTLATPAMGDIQIGMEDKKGQLEVEVIRARSLTQKPGSKSTPAPYVKVYLLENGACIAKKKTRIARKTLDPLYQQSLVFDESPQGKVLQVIVWGDYGRMDHKCFMGVAQILLEELDLSSMVIGWYKLFPPSSLVDPTLAPLTRRASQSSLESSSGPPCIRS
AUC
  Kd: ~3000 µM
